Experimental data published in US20070197509A1, “Compositions and methods for modulating gated ion channels” (PainCeptor Pharma Corporation, priority 2005, published 2007).
Like-named read-outs stand apart in the source and are kept apart here.

Target: T1, hASIC1a (Homo sapiens, UniProt P78348)
T1 sequence (P78348 1-528): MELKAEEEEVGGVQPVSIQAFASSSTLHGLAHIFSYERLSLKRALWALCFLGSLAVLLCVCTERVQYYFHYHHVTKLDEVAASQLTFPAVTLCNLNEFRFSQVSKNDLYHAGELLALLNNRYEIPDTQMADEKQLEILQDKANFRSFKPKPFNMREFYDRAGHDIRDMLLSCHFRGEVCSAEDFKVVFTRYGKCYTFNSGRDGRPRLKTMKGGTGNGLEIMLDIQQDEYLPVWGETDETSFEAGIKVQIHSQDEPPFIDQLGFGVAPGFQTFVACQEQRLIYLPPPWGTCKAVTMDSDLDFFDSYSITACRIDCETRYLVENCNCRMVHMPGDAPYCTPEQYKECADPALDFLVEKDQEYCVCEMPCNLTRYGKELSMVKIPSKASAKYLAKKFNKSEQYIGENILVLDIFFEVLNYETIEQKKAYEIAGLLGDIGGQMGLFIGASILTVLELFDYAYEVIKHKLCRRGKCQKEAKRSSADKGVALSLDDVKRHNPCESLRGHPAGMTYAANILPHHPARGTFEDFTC
Assay: FlexStation/FLIPR calcium-imaging assay, acid (MES)-induced response in ASIC1a expressing cells
Type: cell-based
Parameters: expressed in transfected cells
Description: Identification of ASIC Antagonists Using Calcium-Imaging
ASIC1a expressing HEK293 or CHO cells are grown in culture medium (DMEM with 10% FBS), in polystyrene culture flasks ([…]) at 37° C. in a humidified atmosphere of 5% CO2. Confluency of cells should be 80-90% on day of plating. Cells are rinsed with 10 ml of PBS and re-suspended by addition of culture medium and trituration with a 25 ml pipette.
The cells are seeded at a density of approximately 1×10^5 cells/ml for HEK293 and 8×10^4 for CHO cells (100 μl/well) in black-walled, clear bottom, poly-D-lysin pre-treated 96-well plates. Plated cells were allowed to proliferate for 48 h before loading with dye.
Fluo-4/AM (1 mg, Molecular Probes) is dissolved in 912 μl DMSO. The Fluo-4/AM stock solution (1 mM) is diluted with culture medium to a final concentration of 2 μM (loading solution).
The culture medium is aspirated from the wells, and 80 μl of the Fluo-4/AM loading solution is added to each well. The cells are incubated at 37° C. for 30 min. When CHO cells are used, probenicid at 2.5 mM (final concentration) is added in the loading solution.
After the loading period (15-20 min., the loading solution is aspirated and the cells are washed twice with 100 μl modified Assay Buffer (145 mM NaCl, 5 mM KCl, 5 mM CaCl2, 1 mM MgCl2, 10 mM HEPES, pH 7.4) to remove extracellular dye. Following the second wash, 100 μl modified Assay Buffer is added to each well and the fluorescence is measured in FLIPR™ or FlexStation™ (Molecular Devices, USA), or any other suitable equipment known to the skilled in the art. When CHO cells are used, probenicid at 2.5 mM (final concentration) is added in the wash buffer.
First addition: 50 μl test solution at a rate of 26 μl/sec and a starting height of 125 μl
Second addition: 50 μl MES solution (20 mM, 5 mM final concentration) at a rate of 26 μl/sec and a starting height of 115 μl.
Reading intervals: pre-incubation—120 sec. antagonist phase, addition of MES at 145 sec. and reading time with agonist 100 sec (total run time of 240 sec).
Fluorescence obtained after stimulation is corrected for the mean basal fluorescence (in modified Assay Buffer).
The MES-induced peak calcium response (or change in membrane potential), in the presence of test substance, is expressed relative to the MES response alone. Test substances that block the MES-induced calcium response (or change in membrane potential) are re-tested in triplicates. Confirmed hits are picked for further characterization by performing full dose-response curves to determine potency of each hit compound as represented by the IC50 values (i.e., the concentration of the test substance which inhibits 50% of the MES-induced calcium and/or membrane potentiation response; see, for example, FIG. 1).

[1] = calcium mobilization assay, HEK293, n=3-7, read-out: FPAT-ASIC1a human/HEK293/k21 IC50

IC50 [1]	IC50 (FlexStation (Flex), Tables A-F, read-out: Biological Data (IC50 uM) h1a (Flex))	inhibitory effect on acid-induced hASIC1a activity (FIG. 1) (HEK-293 transiently expressing hASIC1a, intracellular calcium, increasing concentrations)	SMILES
< 10 µM	–	–	COc1ccc(C(=O)CN2CCN(c3cc(C)nc4ccccc34)CC2)cc1 [Compound A, 1-(4-methoxy-phenyl)-2-[4-(2-methyl-quinolin-4-yl)-piperazin-1-yl]-ethanone]
< 10 µM	–	–	Fc1cccc2c(OC3CCN(Cc4ccccc4)CC3)cc(C(F)(F)F)nc12 [Compound B, 4-(1-benzyl-piperidin-4-yloxy)-8-fluoro-2-trifluoromethyl-quinoline]
–	15 to 25 µM	dose-dependently inhibited	Cc1cc(OC2CCN(Cc3ccccc3)CC2)c2ccccc2n1 [Compound R, 4-(1-benzyl-piperidin-4-yloxy)-2-methyl-quinoline]
